Assay results published in patent US6773891B2 (priority 1998, dated 2004).
Where two headings read alike, the source gives them in different places.

Experiments:
[1] = cited from earlier work
[2] = tested on: rats; settings: for Titer, 1 injection / Titer, 2 injections / Titer, 3 injections: i.p.; for Titer, 1 injection: one week after 1st injection; for Titer, 2 injections: one week after 2nd injection; for Titer, 3 injections: one week after 3rd injection
Experimental: Rats were immunized intraperitoneally with the vaccines three times. Injections were given two weeks apart with test bleeds performed one week following the first and second injection. The rats were then exsanguinated one week after the third injection. Freund's complete adjuvant was used for the first injection, and incomplete Freund's adjuvant for the subsequent injections. Serum samples were evaluated in an ELISA assay.
(§1) Antibodies generated against 3′ AMNic vaccine were evaluated using a 3′ AMNic-pGlu ELISA as follows: Dynatech Immulon 4 microtiter plates (Chantilly, Va.) were coated 100 μL/well with 10 ng/mL 3′ AMNic-pGlu in 0.1 M bicarbonate buffer, pH 9.6 and allowed to incubate overnight (ON) at room temperature (RT). The plates were then aspirated and blocked with 1% BSA in PBS for one hour at RT. […] The plates were washed ([…], 0.1% BRIJ) five times and diluted samples and reference serum were loaded. The reference and samples were 2-fold diluted down the plates for a final volume of 100 μL/well and plates are incubated for 1 hour at 37° C. The plates were then washed again and loaded 100 μL/well with peroxidase-conjugated anti-species IgG, Fc specific (Jackson, West Grove, Pa.) diluted in PBB and incubated at 37° C. for one hour. The plates were washed and incubated 10 minutes at RT with 100 μl/well 3,3′,5,5′-tetramethylbenzidine (TMB) substrate (KPL, Gaithersburg, Md.) diluted 1:1 with H2O2 (supplied with TMB reagent kit). The reaction is stopped with the addition of 100 μL/well 1 M phosphoric acid and read at 450 nm on an MR4000 microtiter plate reader (Dynatech). Samples are quantified in relation to the reference using parallel line analysis.

[3] = tested on: rabbits; settings: i.m., dose 100 μg, arithmetic mean six to seven weeks after third injection
Experimental: as §1

[4] = tested on: mice; settings: for Titer, 1 injection / Titer, 2 injections / Titer, 3 injections: s.c.; for Titer, 2 injections: one week after 2nd injection; for Titer, 3 injections: one week after 3rd injection
Experimental: Animals were immunized using standard protocols. In mice, three subcutaneous injections of vaccine were administered, two weeks apart, with test bleeds performed one week following the first and second injection, and exsanguination occurring one week following the third injection. Serum samples were evaluated in an ELISA assay, described in Example 10. The ELISA assay utilized 3′ AMNic-pGlu bound to microtiter plates.
Antibodies generated against 3′ AMNic vaccine were evaluated using a 3′ AMNic-pGlu ELISA as follows: Dynatech Immulon 4 microtiter plates (Chantilly, Va.) were coated 100 μL/well with 10 ng/mL 3′ AMNic-pGlu in 0.1 M bicarbonate buffer, pH 9.6 and allowed to incubate overnight (ON) at room temperature (RT). The plates were then aspirated and blocked with 1% BSA in PBS for one hour at RT. […] The plates were washed (9% NaCl, 0.1% BRIJ) five times and diluted samples and reference serum were loaded. The reference and samples were 2-fold diluted down the plates for a final volume of 100 μL/well and plates are incubated for 1 hour at 37° C. The plates were then washed again and loaded 100 μL/well with peroxidase-conjugated anti-species IgG, Fc specific (Jackson, West Grove, Pa.) diluted in PBB and incubated at 37° C. for one hour. The plates were washed and incubated 10 minutes at RT with 100 μl/well 3,3′,5,5′-tetramethylbenzidine (TMB) substrate (KPL, Gaithersburg, Md.) diluted 1:1 with H2O2 (supplied with TMB reagent kit). The reaction is stopped with the addition of 100 μL/well 1 M phosphoric acid and read at 450 nm on an MR4000 microtiter plate reader (Dynatech). Samples are quantified in relation to the reference using parallel line analysis.

[5] = tested on: rats; assay: Locomotor effects of nicotine; assay type: in vivo; settings: subcutaneous injection
Source text: This experiment used was designed to determine whether passive immunization could prevent an immediate CNS mediated action of nicotine. The rat model used in this experiment was developed by Dr. David Malin and is described in Malin et al. Nicotine-specific IgG reduced distribution to brain and attenuates its behavioral and cardiovascular effects in rats, submitted to the Fifth Annual Meeting of the Society for Research on Nicotine and Tobacco, San Diego, Calif., Mar. 5-7, 1999; To establish a baseline, the effect of a subcutaneous injection of 0.8 mg/kg of nicotine tartrate on locomotor activity level of rats was measured. The 0.8 mg/kg dose of nicotine tartrate is the highest dose that could be used without inducing locomotor abnormalities.
There was an increase in activity level after nicotine injection in rats that were not pre-treated with anti-[3′ AMNic-Suc-rEPA], and in rats that were pretreated with 50 mg of normal rabbit serum IgG. See FIG. 6A, right bar and FIG. 6B, left bar. This effect was suppressed by pretreating the animals with 50 mg of anti-[3′ AMNic-Suc-rEPA] immune IgG (FIG. 6B, right bar).

[6] = 0.5 mg/mL in 1 mL glass vials
Experimental: A stability study of the nicotine-carrier conjugate of example 4 was carried out. The study used the vaccine vialed in 1 mL glass vials at a concentration of 0.5 mg/mL and the stability of the vialed vaccine was tested at three different temperatures: −70° C., 2 to 8° C. and room temperature.
The stability study consisted of monitoring and assaying the conjugate vaccine using the following:
1.) Visual observation to look for any particulates formed (turbidity, precipitation).
2.) Checking for any significant pH change.
3.) Size exclusion chromatography profile in combination with UV absorption at 260 and 280 nm to determine if the ratio of nicotine incorporation changed.
4.) Reversed phase chromatography to check for any carrier protein degradation.
5.) SDS PAGE with silver staining looking for any proteolytic cleavage of the conjugated protein.

[7] = tested on: rats; settings: three i.p. injections of 25 μg vaccine, 3 and 10 min after 0.03 mg/kg nicotine infusion over 10 seconds
Experimental: To evaluate the present immunotherapy, an animal model has been developed to simulate the rapid absorption of nicotine from two cigarettes in humans. […] In this model, rats were administered 0.03 mg/kg of nicotine by i.v. infusion over 10 sec., simulating the rapid absorption of nicotine from the lungs in human smokers. Blood samples were taken at 3 and 10 min after nicotine injection for measurement of plasma nicotine.

## CN1CCC[C@H]1c1cccnc1 [nicotine, (S)-(−)-nicotine]
[1]; after smoking a cigarette
  Time to peak levels of nicotine in the blood: 10 to 15 min
[1]; humans, smoking a cigarette
  Arterial versus venous nicotine concentrations: 10 fold

## 3-aminomethyl-(−)-nicotine-polyglutamic acid-ADH-rEPA [3′AMNic-pGlu-ADH-rEPA]
[2]
  Booster response: showed the ability to induce the booster response
[2]; dose 100 μg (dry weight of lyophilized conjugate)
  Titer, 1 injection: 0
[2]; dose 100 μg (dry weight)
  Titer, 2 injections: 1,067
  Titer, 3 injections: 3,752
[3]
  Titer: 147,000
[4]
  Booster response: showed the ability to induce the booster response
[4]; dose 2 μg (dry weight of lyophilized conjugate), one week after 1st injection
  Titer, 1 injection: 2
[4]; dose 2 μg (dry weight)
  Titer, 2 injections: 739
  Titer, 3 injections: 6,586
[4]; dose 10 μg (dry weight), one week after 1st injection
  Titer, 1 injection: 2
[4]; dose 10 μg (dry weight)
  Titer, 2 injections: 2,490
  Titer, 3 injections: 9,573
[4]; dose 30 μg (dry weight), one week after 1st injection
  Titer, 1 injection: 11
[4]; dose 30 μg (dry weight)
  Titer, 2 injections: 2,822
  Titer, 3 injections: 8,195

## CN1CCCC1c1cccnc1.O=C(O)C(O)C(O)C(=O)O (stereo not drawn) [nicotine tartrate]
[5]
  Highest dose without inducing locomotor abnormalities: 0.8 mg/kg

## 3′aminomethyl-(−)-nicotine-succinyl-rEPA [3′AMNic-Suc-rEPA]
[2]
  Booster response: showed the ability to induce the booster response
[2]; Freund's adjuvant, dose 15 μg (protein assay)
  Titer, 1 injection: 18
[2]; dose 15 μg (protein assay)
  Titer, 2 injections: 7,942
  Titer, 3 injections: 9,947
[2]; dose 25 μg (protein assay)
  Titer, 1 injection: 4
  Titer, 2 injections: 1,446
  Titer, 3 injections: 5,991
[2]; dose 50 μg (protein assay)
  Titer, 1 injection: 353
  Titer, 2 injections: 7,211
  Titer, 3 injections: 8,996
[3]
  Titer: 132,000
[4]
  Booster response: showed the ability to induce the booster response
[4]; dose 1 μg (protein assay), arithmetic mean one week after 1st injection
  Titer, 1 injection: 0
[4]; dose 1 μg (protein assay)
  Titer, 2 injections: 36
  Titer, 3 injections: 4,280
[4]; dose 5 μg (protein assay), one week after 1st injection
  Titer, 1 injection: 1
[4]; dose 5 μg (protein assay)
  Titer, 2 injections: 884
  Titer, 3 injections: 10,727
[4]; dose 15 μg (protein assay), one week after 1st injection
  Titer, 1 injection: 3
[4]; dose 15 μg (protein assay)
  Titer, 2 injections: 2,476
  Titer, 3 injections: 14,160
[6]; −70° C. and 2 to 8° C.
  Stability of the conjugate: stability of the conjugate for six months
[6]; −70° C., 2 to 80° C. and room temperature
  Stability of the conjugate: stability of the conjugate for six months
[7]
  Nicotine in plasma versus non-immunized controls: increased levels of nicotine in plasma
